Reference: patent US6852698B2, “Free radical scavengers or promoters thereof as therapeutic adjuvants in preterm parturition” (priority 2000, dated 2005)
Values belong to the compound of their own block, whether it stands above or below them.

Legend:
C57B16 inbred mice [1] = assay: Fetal outcome (viability) in LPS-injected pregnant mice; assay type: in vivo; conditions: for Fetuses dead in utero: 16 h after LPS
Protocol: (§1) Animals and treatments: C57B16 inbred mice were housed together with CD57/BL6 males under regular light and dark cycles, with stable ambient temperature conditions. The next morning the females were examined for the presence of a vaginal plug. The day of detection of the vaginal plug was designated as day 0. On day 16 of pregnancy the pregnant mice were injected i.p. with either 10 μg lipopolysaccharide (LPS: from E Coli 0111.:B4 from Calbiochem) or saline (controls). N-Acetylcysteine 1 g/kg (NAC: which is a membrane permeable GSH precursor, Sigma, St. Louis Mo. and direct antioxidant) was given p.o. by gavage 30 min before and 2 h after the LPS injection. NAC was diluted in phosphate buffered saline (PBS). After 12 hours the animals were inspected hourly for signs of parturition (posture, bleeding). The time between LPS injection and delivery of the first pup was defined as latency. Fetal viability at birth was recorded after tactile stimulation of the pup. To separate between the effect of prematurity on the fetus and the in utero consequence of endotoxin administration on the fetus, animals were sacrificed at 3, 6 and 16 hours after endotoxin injection in a separate set of experiments.

MMP-2 = assay: Gelatin zymography of medium from incubated human term amniochorionic membranes, MMP-2; assay type: cell-based
Source text: Tissues: Full thickness amniochorionic membranes were collected from seven patients without complications of pregnancy undergoing elective C-section at term. The fragment collected was selected from a region at least 10 cm away from the placenta. Immediately after collection, membranes were placed in minimum essential medium (MEM) (Gibco, Grand Island, N.Y.) on ice. Tissue samples were then cut under sterile conditions with a scalpel blade into smaller pieces of similar size. Over the next 30 min., the pieces of membranes were rinsed thoroughly with several changes of MEM and then sterile phosphate buffered saline (PBS) pH=7.8. Preweighed amounts of tissue (approximately 500 mg) consisting of several pieces selected at random were placed in a CO2 incubator with a humidified chamber at 37° C. for 24 hours. Incubations were carried out in a total volume of 2 ml buffer. Both wet weight and dry weight of tissue pieces were determined after incubation and after drying overnight at 60° C., respectively. After incubation the culture-conditioned medium was collected, briefly spun at 1000 g to remove cellular debris and loaded directly on gelatin gels. The concentration of protein in the aliquots of medium was measured with a BCA kit (Pierce, Rockford, Ill.). […]
SDS-Substrate gel electrophoresis (zymography): For detection of MMPs, equal volumes (15 μl) of conditioned medium (containing the activated MMPs) were mixed in a 1:3 ratio with substrate gel buffer (10% SDS, 4% sucrose, 0.25 M Tris-HCl, pH=6.8 and 0.1% bromphenol blue) and loaded directly onto gels without boiling (Raj agopalan et al., 1996 with modifications). […] In order to quantify the gelatinolytic activity of MMPs, the wet gel was scanned on a GS-670 Image Densitometer (Bio-Rad), and analyzed using Multianalyst v1.1 volume quantification system software (Bio-Rad). […]

[2] = tested on: superoxide anion in fetal membranes; assay: Nitroblue tetrazolium (formazan) assay of superoxide generation in fetal membranes; assay type: cell-based, human
Protocol: Intracellular superoxide anion generation: Pieces of fetal membranes were immersed in Krebs bicarbonate buffer (118 mM NaCl, 4.7 mM KCl, 1.18 MM MgSO4, 1.18 mM KH2PO4, 11.1 mM D-glucose, 0.016 mM EDTA, 2.2 mM CaCl2, 15.8 mM NaHCO3, pH=7.35−7.4) containing 1 mg/ml nitroblue tetrazolium (NBT), for 180 min. in the CO2 incubator with humidified chamber at 37° C. The soluble yellow form of NBT is reducedby O2.^− generated within the tissue to form an insoluble precipitate of blue-purple formazan. After incubation, the fetal membranes were washed in saline, photographed, placed in 4% formaldehyde and kept overnight in a refrigerator. Specimens were then embedded in OCT Tissue Tek embedding medium (Fisher Scientific, Pittsburgh, Pa.) and frozen in liquid nitrogen. The frozen specimens were cut by cryostat into 20 μm sections, mounted onto electrostatically treated-glass slides (Fisherbrand Superfrost Plus, Fisher Scientific) and counterstained with Neutral Red. They were immediately investigated by light microscopy using a Nikon Eclipse E1000M microscope connected to an MTI DC330 3CCD Color Camera (Dage MTI Inc., Michigan City, Mich.).

C57B16 inbred mice [3] = assay: Timing of birth (latency) in LPS-injected pregnant mice; assay type: in vivo
Protocol: as §1, with “N-Acetylcysteine 1 g/kg (NAC: which is a membrane permeable GSH precursor, Sigma, St. Louis Mo. and direct antioxidant) was given p.o. by gavage 30 min before and 2 h after the LPS injection.” left out

glutathione = assay: Total glutathione in maternal and fetal livers; assay type: in vivo, mice; conditions: 16 h
Protocol: Measurement of total glutathione: Glutathione content was measured in maternal and fetal livers of animals treated with and without NAC and sacrificed at 3, 6 and 16 hours after LPS injection. Fetal livers were pooled from all fetuses of each pregnant animal, snap frozen in liquid nitrogen and stored at −80° C. until assayed. Briefly, the frozen tissue was rapidly homogenized in 7.5% trichloroacetic acid in a ratio of 1:20 (w/v). The homogenate was centrifuged at 3000 g for 10 min at 4° C. Total glutathione content was assayed in the supernatant by a colorimetric reaction that involves the formation of a chromophoric thione (Bioxytech GSH-420, Oxis Health Products, Portland, Oreg.) and was expressed in μg/ml by using oxidized glutathione standards and further normalized by the total protein content of the pellet. The protein pellet was solubilized in 0.1 N NaOH and its protein content was estimated using a BCA protein assay kit (Pierce, Rockford, Ill.).

MMP-9 = assay: Gelatin zymography of medium from incubated human term amniochorionic membranes, MMP-9; assay type: cell-based; conditions: for Effect on the increase in MMP-9 induced by X/XO: X 2 mM + XO 20 mU/ml, SOD 500 U/ml
Source text: Tissues: Full thickness amniochorionic membranes were collected from seven patients without complications of pregnancy undergoing elective C-section at term. The fragment collected was selected from a region at least 10 cm away from the placenta. Immediately after collection, membranes were placed in minimum essential medium (MEM) (Gibco, Grand Island, N.Y.) on ice. Tissue samples were then cut under sterile conditions with a scalpel blade into smaller pieces of similar size. Over the next 30 min., the pieces of membranes were rinsed thoroughly with several changes of MEM and then sterile phosphate buffered saline (PBS) pH=7.8. Preweighed amounts of tissue (approximately 500 mg) consisting of several pieces selected at random were placed in a CO2 incubator with a humidified chamber at 37° C. for 24 hours. Incubations were carried out in a total volume of 2 ml buffer. Both wet weight and dry weight of tissue pieces were determined after incubation and after drying overnight at 60° C., respectively. After incubation the culture-conditioned medium was collected, briefly spun at 1000 g to remove cellular debris and loaded directly on gelatin gels. The concentration of protein in the aliquots of medium was measured with a BCA kit (Pierce, Rockford, Ill.).
Drugs and incubations: Incubations were performed in the presence of xanthine (X: 2 mM), xanthine oxidase (XO: 20 mU/ml), the combination xanthine+xanthine oxidase (X/XO), superoxide dismutase (SOD: 500 U/ml), X/XO/SOD, nitro-L-arginine (a nonspecific nitric oxide synthase inhibitor, LNA: 1 mM), X/XO/LNA, S-nitroso-N-acetyl penicillamine (a nitric oxide donor, SNAP 10 mM), X/XO/SNAP, N-acetyl cysteine (NAC: 0.1, 1, 10 mM), lipopolysaccharide (LPS 100 ng/ml). All chemicals were purchased from Sigma (St. Louis, Mo.) unless otherwise specified.
SDS-Substrate gel electrophoresis (zymography): For detection of MMPs, equal volumes (15 μl) of conditioned medium (containing the activated MMPs) were mixed in a 1:3 ratio with substrate gel buffer (10% SDS, 4% sucrose, 0.25 M Tris-HCl, pH=6.8 and 0.1% bromphenol blue) and loaded directly onto gels without boiling (Raj agopalan et al., 1996 with modifications). Briefly, type I gelatin was added to a standard Laemmli 10% acrylamide polymerization mixture at a final concentration of 1 mg/ml. Following electrophoresis, the proteins in the gel were renatured by exchanging SDS with Triton X-100 and the gels were incubated overnight at 37° C. in 50 mM TRIS-HCl, pH=7.4 containing 10 mM CaCl2 and 0.05% Brij 35. At the end of the incubation, the gels were stained with 0.5% Coomassie Blue R-250 (Bio-Rad, Hercules, Calif.) in 40% methanol/10% acetic acid, then destained in 40% methanol/10% acetic acid for 1 h. Proteins having gelatinolytic activity appeared as discrete translucent areas of lytic activity on an otherwise blue gel. When the gels are incubated in parallel with 0.01 M EDTA, disappearance of lytic bands confirms the metal dependence of MMP activity. Migration of proteins was compared with that of prestained broad molecular weight markers (Bio-Rad). Further, 10 ng/lane of zymography standards (recombinant MMP-2/MMP-9, Calbiochem, La Jolla, Calif.) were run along with the samples. In order to quantify the gelatinolytic activity of MMPs, the wet gel was scanned on a GS-670 Image Densitometer (Bio-Rad), and analyzed using Multianalyst v1.1 volume quantification system software (Bio-Rad). […]

extracellular O2− [4] = assay: Placental extracellular superoxide production (SOD-inhibitable NBT reduction); assay type: in vivo, mice
Protocol: Placental extracellular superoxide production: Placental extracellular superoxide production was determined by the SOD-inhibitable reduction of nitroblue tetrazolium. Briefly, after sacrifice duplicate placentas where incubated each in 1 ml 1 mg/ml nitroblue tetrazolium (NBT) diluted in PBS, for 1 h. in a CO2 incubator with humidified chamber at 37° C. The soluble yellow form of NBT is reduced by O2.^− generated within the tissue to form an insoluble precipitate of blue-purple formazan that discolorates the tissue. Extracellular O2.^− produces a discoloration of the incubation medium. The incubation was performed in the presence and absence of SOD. The difference in absorbance at 655 nm normalized by the dry weight of placenta between the average of the duplicates in the presence and absence of SOD represents the SOD-inhibitable O2.^− production and was expressed in normalized arbitrary units.

[5] = parameters: species or system mice; conditions: mouse, in vivo
Protocol: We have experimentally investigated the transplacental passage of spin trapping compounds. Methodology: C57B16 mice were injected ip with 4 mmols/kg POBN [a-(4-pyridyl-1-oxide-N-t-butylnitrone)] on day 16 of pregnancy. Animals were sacrificed at different times after injection, 2-5 fetuses collected and lipids extracted as described by Brackett et al., 1989. Electron paramagnetic spectra were obtained in a Varian EPR spectrometer equipped with an X-band microwave bridge with center field set at 3376 Gauss and modulation frequency at 100 Hz. The extracts were examined before and after in vitro addition of a hydroxyl radical generating Fenton mixture (Fe^2++H2O2).

extracellular O2− [6] = assay: Cytochrome c reduction assay of the X/XO reaction; assay type: biochemical; conditions: SOD 500 U/ml
Protocol: Extracellular superoxide anion generation: O2^− was generated enzymatically from the reaction between 2 mM xanthine (X) and 20 mU/ml xanthine oxidase (XO), as described by McCord and Fridovich (1969). Though these amounts are larger than those routinely used for in vitro generation of O2^− in cell-free experiments, we have based our decision on the presence of both XO and SOD in fetal membranes (Telfer et al., 1997) and on our assumption that the expression of these enzymes will change the efficiency of the X/XO reaction. As a result we monitored the efficiency of the X/XO reaction in our experimental setting by a cytochrome c assay, both in tissue-free conditions as well as in the presence of the tissue (Babior et al., 1973).

[7] = 10 mM NAC, 24 h incubation of human term fetal membranes
[8] = NAC 10 mM, human fetal membranes
[9] = SNAP 10 mM, LNA 1 mM, data not shown
[10] = addition of SOD, 3 hour incubation with NBT

Compound: CC(=O)N[C@@H](CS)C(=O)O [NAC, N-acetylcysteine]
- Fetuses dead in utero (C57B16 inbred mice [1]; group that received LPS plus NAC, p=0.006 vs LPS group): 37%
- Proportion of pups born alive (C57B16 inbred mice [1]; mice given NAC before and after LPS): statistically significant increase
- MMP-2 activity, % of the levels from the CRL tissue (MMP-2; [7]): 20%
- Effect on MMP-2 in the presence and absence of LPS (MMP-2; [8]): dramatically inhibited
- Formazan formation in the incubated tissue (macroscopic) ([2]; NAC 10 mM, 3 hour incubation with NBT): completely abolished
- Formazan deposits by light microscopy (intracellular O2− formation) ([2]; tissues exposed to NAC): no formazan deposits
- Latency compared statistically with CRL and LPS groups (C57B16 inbred mice [3]; LPS plus NAC): no longer different from either CRL or LPS animals
- Latency period (LPS injection until delivery) (C57B16 inbred mice [3]; LPS plus two doses of 1 mg/kg NAC per os, 1 h before and 2 h after LPS, n=12): 35.13 ± 6.41 h
- Kaplan-Maier survival analysis of cumulative birth rates (C57B16 inbred mice [3]; LPS-injected mice with or without NAC): did not reveal a significant NAC effect
- Time of delivery after saline injection (C57B16 inbred mice [3]; NAC alone, no LPS, n=7): 67.71 ± 5.8 h
- Maternal liver GSH (glutathione; LPS-treated pregnant mice, NAC p.o.): prevented the decrease
- Fetal liver GSH content (glutathione; fetuses of LPS-injected mice, maternal NAC p.o.): not different from either CRL or LPS
- MMP-9 activity, % of the levels from the CRL tissue (MMP-9; [7]): 20%
- Effect on MMP-9 in the presence and absence of LPS (MMP-9; [8]): dramatically inhibited
- Effect on the increase in MMP-9 induced by X/XO (MMP-9; human fetal membranes): prevented the increase in MMP-9
- Effect on the LPS-induced increase in placental extracellular O2− production (extracellular O2− [4]; LPS plus NAC, 3 hours): not seen

- Additional difference in magnitude of the EPR signal, fetus 6 h vs maternal liver 1 h or fetus 1 h [5]: 10 fold
Compound: CC(C)(C)[N+]([O-])=Cc1cc[n+]([O-])cc1 [POBN, a-(4-pyridyl-1-oxide-N-t-butylnitrone)]

Compound: CC(=O)N[C@H](C(=O)O)C(C)(C)SN=O [SNAP, S-nitroso-N-acetyl penicillamine]
- Effect on fetal membrane MMP activity (MMP-2) (MMP-2; [9]): nor the NO donor SNAP had any significant effect
- Effect on fetal membrane MMP activity (MMP-9) (MMP-9; [9]): nor the NO donor SNAP had any significant effect

Compound: lipopolysaccharide [LPS]
- Fetuses dead in utero (C57B16 inbred mice [1]; LPS group without NAC): 63%
- Vaginal stillbirth rate (C57B16 inbred mice [1]; LPS group without NAC): 100%
- Increase in extracellular O2− production in placentas (extracellular O2− [4]; LPS-injected animals at 3 hours): 2.7 fold

Compound: superoxide dismutase [SOD]
- Change in absorbance at 550 nm (cytochrome c reduction by X/XO) (extracellular O2− [6]): completely inhibited
- Extracellular formazan formation induced by X/XO [2, 10]: inhibited completely
- Intracellular formazan formation induced by X/XO [2, 10]: only partially
- Effect on the increase in MMP-9 induced by X/XO (MMP-9; human fetal membranes): reversed
